Source: patent US20120225862A1, “HETEROARYL BENZAMIDES, COMPOSITIONS AND METHODS OF USE” (AUCKLAND UNIVSERVICES LIMITED, priority 2009, published 2012)
pIC50: −log10 of the molar value.

How the values were obtained:
[1] = test system: RCC4; test: XTT IC50 / viability assay, RCC4 cells; assay type: cell-based, human; conditions: for pIC50: Homo sapiens, RCC4, 96 h, XTT assay, four days
Method in brief: (§1)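 RCC4 parental and VHL-reintroduced RCC4/VHL cells (DMEM, 10% FCS) treated with serially diluted drug for four days. Viability by XTT (0.3 mg/mL) with N-methyl dibenzopyrazine methyl sulfate, 1–2 h at 37 °C, absorbance 450 nm; IC50 by linear interpolation.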

[2] = test system: RCC4/VHL; test: XTT IC50 assay, selectivity RCC4 versus RCC4 with VHL-reintroduced; assay type: cell-based, human; conditions: selectivity ratio of XTT IC50 values, RCC4 vs RCC4/VHL
Method in brief: as §1

[3] = molecular target: T1, GLUT1 (Homo sapiens, UniProt P11166); test: Affi-gel affinity binding of GLUT1 from cell lysates; conditions: salt elution, immunoblot; for binding of GLUT1 to Affi-gel immobilized compound, RCC4 lysates: RCC4 cell lysates
T1 construct: endogenous in cells; host or cells: RCC4 and RCC4/VHL cell lysates
T1 sequence (P11166 1-492): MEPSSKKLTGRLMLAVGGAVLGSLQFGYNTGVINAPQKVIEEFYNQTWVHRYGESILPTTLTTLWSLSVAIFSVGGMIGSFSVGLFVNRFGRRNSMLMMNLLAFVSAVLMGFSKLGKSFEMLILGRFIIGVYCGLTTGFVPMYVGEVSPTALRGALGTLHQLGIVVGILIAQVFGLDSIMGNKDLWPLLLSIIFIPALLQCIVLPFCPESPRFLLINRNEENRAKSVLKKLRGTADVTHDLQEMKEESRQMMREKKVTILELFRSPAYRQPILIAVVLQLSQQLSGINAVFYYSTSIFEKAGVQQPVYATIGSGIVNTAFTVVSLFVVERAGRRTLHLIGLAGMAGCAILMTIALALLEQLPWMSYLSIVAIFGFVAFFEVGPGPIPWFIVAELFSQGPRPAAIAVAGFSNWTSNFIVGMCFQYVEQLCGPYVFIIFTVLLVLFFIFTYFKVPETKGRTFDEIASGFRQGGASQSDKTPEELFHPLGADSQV
Procedure: All cells were grown in DMEM+10% FCS. ACHN and ACHN shVHL were a kind gift from George V. Thomas (UCLA). HIF overexpressing clones were described previously. Transfection of RNA oligos were performed with DnarmaFECT Reagent 1 (Dharmcon), according to manufacturer's directions. ON-TARGETplus SMART pools against HIF-1β/ARNT were purchased from Dharmacon. Glut1 was detected with anti-GLUT1 antibody from NeoMarkers/LabVision/Fisher. Pyruvate/lactate levels and hexokinase activity were both measured by fluorometric assay (BioVision and Sigma-Aldrich, respectively). ATP levels were measured by bioluminescence assay (ATP Determination Kit from Molecular Probes/Invitrogen). In vitro kinase activities were performed by Millipore KinaseProfiler. Affi-Gel 10 (BioRad) activated affinity media was coupled to analogs to generate immobilized affinity linkers.
We next wanted to investigate the differential glucose uptake between RCCs with and without VHL treated with compound 47 that subsequently lead to the selective death of VHL-deficient cells. We first examined the message levels of the two main glucose transporters, GLUT1 and GLUT2 by quantitative real-time PCR. GLUT1 is an inducible, high-affinity glucose transporter, while GLUT2 is the glucose transporter responsible for basal glucose uptake. Other family members, such as GLUT3 and GLUT4, are not expressed in renal cells. GLUT1 was highly expressed in cells lacking VHL, while cells with VHL had very low levels of GLUT1 (FIG. 3I). In contrast, GLUT2 was highly expressed in cells with wild-type VHL. Cells deficient in VHL had very low levels of GLUT2 that could barely be detected (FIG. 3J). […] In order to more directly test this, we performed binding assays to see whether compound 47 was directly interacting with GLUT1. An analog of compound 47, compound 116 was synthesized and linked to an immobilized linker (Affi-gel 10). Cell lysates from both RCC4 and RCC4/VHL were incubated with the Affi-gel-compound 47. […]

[4] = test system: RCC4; test: 3H-2-deoxyglucose uptake, RCC4; assay type: cell-based, human; conditions: 3H-2-deoxyglucose, two days of treatment, 5 μM
Procedure: One hundred thousand cells were plated into 6-well plates. The following day, the cells were treated with vehicle or drug and incubated for the indicated time. Cells were washed twice in phosphate buffered saline and low glucose media was added for 30 minutes. Cells were then incubated with 0.5 microCi of tritiated-2-deoxyglucose and incubated for an hour at 37° C. Cells were washed twice in PBS and then lysed in 0.2 N NaOH and 0.2% SDS. Lysates were transferred to scintillation tubes with scintillation fluid and quantified by scintillation counter.
One hundred thousand cells were plated per well in a six-well plate. The next day, cells were treated with the indicated concentration of drug and incubated for the indicated time. Cells were then washed twice with phosphate-buffered saline, incubated in low-glucose medium for 30 minutes, and ^3H-2-deoxyglucose (0.5 μCi) was added in 1 ml of glucose-free media for an additional hour. Cells were washed twice in PBS and lysed (0.2 N NaOH and 0.2% sodium dodecyl sulfate). Glucose uptake was quantified with a scintillation counter.

[5] = test system: 786-O; test: FDG-PET imaging of 786-O xenografts; assay type: in vivo, mice; conditions: 786-O xenografts in CD-1 nude mice, three daily i.p. doses (11.6 mg/kg)
Procedure: FIG. 5A-E In vivo monitoring and efficacy of compound 47. […] 786-O, a renal clear cell carcinoma with a naturally occurring VHL mutation, were implanted subcutaneously into the flanks of CD-1 nude mice. Representative axial cross section of a mouse prior to treatment (left) and following three daily i.p. injections with compound 85 (11.6 mg/kg)(right), overlaid over CT scan. (B) Quantitatively, compound 85 inhibits FDG-PET in mouse xenografts. Quantification of FDG-PET inhibition by compound 85 as determined by the 90th percentile ROI for percent injected dose per gram (% ID/g) (*p<0.01). (C) Compound 85 is not toxic to normal tissues. (a, b) Kidney of vehicle- and compound 85-treated animals. (c, d) Spleen of vehicle- and compound 85-treated animals. (e, f) Liver of vehicle- and compound 85-treated animals. (g, h) Heart of vehicle- and compound 85-treated animals. (i, j) Salivary gland of vehicle- and compound 85-treated animals. (k, l) Brain of vehicle- and compound 85-treated animals. Scale bar represents 100 microns. (D) Compound 85 delays tumor growth. 786-O tumor-bearing mice were treated daily with vehicle or compound 85 (11.6 mg/kg for the first 3 days, followed by 7.8 mg/kg for the next week)(*p<0.005). (E) Compound 85 delays tumor growth in cells that have lost VHL. ACHN cells expressing a short hairpin RNA to VHL were implanted subcutaneously into the flanks of immunocompromised mice. Once tumors reached an average of >20 mm^3, mice were treated daily with compound 85 or vehicle (*p<0.05). All error bars represent the standard error of the mean.
In Vivo Studies and Immunohistochemistry. All experiments were approved by Stanford's Administrative Panel on Laboratory Animal Care (APLAC) and in accordance with both institutional and national guidelines. Five million cells were implanted subcutaneously into the flanks of nude mice (4-6 weeks old)(Charles River Laboratories). Tumors were measured with calipers. Volume was calculated by the following formula: width^2×0.5 length. […]

[6] = test system: RCC4; test: Clonogenic survival, RCC4; assay type: cell-based, human; conditions: RCC4 (VHL-deficient), 5 μM, 10 days
Procedure: Three hundred cells were plated into 60-mm tissue culture dishes in DMEM. The next day, cells were treated with vehicle or drug and were further incubated for an additional 10 days. […] The stain was removed and plates were washed in deionized water. Colonies were quantified. All conditions were measured in triplicate and all experiments were performed in triplicate.
For 2,3-bis[2-methoxy-4-nitro-5-sulfophenyl]-2H-tetrazolium-5-carboxanilide (XTT) assays, five thousand cells were plated in 96-well plates. The next day, vehicle (DMSO) or drug was added by serial dilution. […] Metabolism of XTT was quantified by measuring the absorbance at 450 nm. IC50s were calculated using linear interpolation. For clonogenic survival assays, three hundred cells were plated per 60 mm tissue culture dish. The cells were allowed to attach overnight and then treated with vehicle or drug for […]. […] All conditions were measured in triplicate and each experiment was done in duplicate or triplicate. To determine necrosis, cells were treated with drug for a given time point. Media and cells were collected, centrifugated, and resuspended in 0.4% trypan blue (Invitrogen). Live and dead cells were counted on a hematocytometer.

[7] = test system: RCC4/VHL; test: Clonogenic survival, RCC4/VHL; assay type: cell-based, human; conditions: RCC4/VHL (wild-type VHL), 5 μM, 10 days
Procedure: Three hundred cells were plated into 60-mm tissue culture dishes in DMEM. The next day, cells were treated with vehicle or drug and were further incubated for an additional 10 days. After 10 days, the media was removed and colonies were fixed and stained in 95% ethanol and 0.1% crystal violet for 15 minutes. The stain was removed and plates were washed in deionized water. Colonies were quantified. All conditions were measured in triplicate and all experiments were performed in triplicate.
For 2,3-bis[2-methoxy-4-nitro-5-sulfophenyl]-2H-tetrazolium-5-carboxanilide (XTT) assays, five thousand cells were plated in 96-well plates. The next day, vehicle (DMSO) or drug was added by serial dilution. Four days later, media were aspirated, XTT solution (0.3 mg/ml of XTT (Sigma), 2.65 mg/ml N-methyl dibenxopyrazine methyl sulfate (Simga) in phenol red-free media) was added, and the plates were incubated at 37° C. for 1-2 hours. Metabolism of XTT was quantified by measuring the absorbance at 450 nm. IC50s were calculated using linear interpolation. For clonogenic survival assays, three hundred cells were plated per 60 mm tissue culture dish. The cells were allowed to attach overnight and then treated with vehicle or drug for 14 days. […] All conditions were measured in triplicate and each experiment was done in duplicate or triplicate. […] Live and dead cells were counted on a hematocytometer.

`NCCOCCOCCOCCOCCOCCOCC#Cc1ccc(S(=O)(=O)NCc2ccc(C(=O)Nc3cccnc3)cc2)cc1` [Example 100, 4-[({[4-(21-Amino-4,7,10,13,16,19-hexaoxahenicos-1-yn-1-yl)phenyl]sulfonyl}amino)methyl]-N-(3-pyridinyl)benzamide] was tested, and the pIC50 [1] was 4.70 to 6.00, the “Ratio (RCC4:RCC/VHL)” value [2] was “a (“a” reflects a ratio of RCC4/RCC-VHL+ ranging from 1 to 10)” and the “binding of GLUT1 to Affi-gel immobilized compound, RCC4 lysates” value [3] was “bound”.
`Cc1cccc(Nc2nc(-c3ccnc(-c4cn(CCCCCCN)nn4)c3)cs2)c1` [4-{2-[1-(6-aminohexyl)-1H-1,2,3-triazol-4-yl]-4-pyridinyl}-N-(3-methylphenyl)-1,3-thiazol-2-amine, reference compound] was tested, and the “binding of GLUT1 to Affi-gel immobilized compound, RCC4/VHL lysates” value ([3]; RCC4/VHL cell lysates) was “did not bind” and the “binding of GLUT1 to Affi-gel immobilized compound, RCC4 lysates” value [3] was “did not bind”.
For `Cc1cccc(Nc2nc(-c3ccncc3)cs2)c1` [4-(pyridin-4-yl)-N-(m-tolyl)thiazol-2-amine, reference compound], the “glucose uptake in VHL-deficient RCC4 cells” value [4] was “did not decrease glucose uptake” and the “glucose uptake within tumors by FDG-PET” value [5] was “did not have a decrease in glucose uptake”.
With `COc1cccc(S(=O)(=O)NCc2ccc(C(=O)Nc3cccnc3)cc2)c1` [Example 18, 4-((3-Methoxyphenylsulfonamido)methyl)-N-(pyridin-3-yl)benzamide] the pIC50 [1] was 4.70 to 6.00, the “number of RCC4 cells compared to RCC4/VHL (XTT metabolic activity)” value ([1]; four days of treatment, concentration-dependent, FIG. 2A) was “significant decrease in the number of RCC4 cells” and the “Ratio (RCC4:RCC/VHL)” value [2] was “b (“b” reflects from 10 to 100)”. For the same molecule, the “clonogenic survival of RCC4” value [6] was “specifically toxic to RCC4 cells” and the “clonogenic survival of RCC4/VHL” value [7] was “relatively unaffected”.
